Data taken from article PMC7215599, “Synthesis, Antitumor Evaluation, Molecular Modeling and Quantitative Structure–Activity Relationship (QSAR) of Novel 2-[(4-Amino-6-N-substituted-1,3,5-triazin-2-yl)methylthio]-4-chloro-5-methyl-N-(1H-benzo[d]imidazol-2(3H)-ylidene)Benzenesulfonamides” (International Journal of Molecular Sciences, 2020).

Legend:
[1] = system: HCT-116 (colon cancer) cell line; test: MTT cell viability assay, HCT-116; assay type: cell-based, human; conditions: for IC50: MTT, 72 h, 1-100 µM, mean ± SD
Description: (§1) Compounds 6–49 were evaluated in vitro for their effects on the viability of the three human cancer cell lines: HCT-116 (colon cancer), MCF-7 (breast cancer) and HeLa (cervical cancer) as well as the non-cancerous keratinocyte cell line (HaCaT). The concentration required for 50% inhibition of cell viability IC50 was calculated and compared with the reference drug cisplatin, the results are shown in Table 1.
(§2) Cell lines: colon cancer (HCT-116), breast cancer (MCF-7), cervical cancer (HeLa), the human keratinocyte cell line (HaCaT); NT—not tested; IC50 was measured at concentrations 1, 10, 25, 50, and 100 µM. IC50 values are expressed as the mean ± SD of at last three independent experiments.
(§3) All chemicals, if not stated otherwise, were obtained from Sigma–Aldrich (St. Louis, MO, USA). The HCT-116 cell lines was purchased from ATCC (ATCC-No: CCL-247), while the MCF-7, HeLa and HaCaT cell lines were purchased from Cell Lines Services (Eppelheim, Germany). Cells were cultured in Dulbecco’s modified Eagle’s medium (DMEM) supplemented with 10% fetal bovine serum, 2 mM glutamine, 100 units/mL penicillin, and 100 µg/mL streptomycin. Cultures were maintained in a humidified atmosphere with 5% carbon dioxide at 37 °C in an incubator (Heraceus, HeraCell).
(§4) Cell viability was examined using the MTT (3-(4,5-dimethylthiazol-2-yl)-2,5-diphenyltetrazolium bromide) assay. Cells were seeded in 96-well plates at a density of 5 × 10^3 cells/well and treated for 72 h with the tested compounds in the concentration range of 1–100 µM (1, 10, 25, 50 and 100 µM). Then, MTT (0.5 mg/mL) was added to the medium and cells were further incubated for 2 h at 37 °C. In the next stage, cells were lysed with DMSO and the absorbance of the formazan solution was measured at 550 nm with a plate reader (1420 multilabel counter, Victor, Jügesheim, Germany). The experiment was performed in triplicate. Values are expressed as the mean ± SD of at least three independent experiments. Cisplatin was used as a positive control.

[2] = system: MCF-7 (breast cancer) cell line; test: MTT cell viability assay, MCF-7; assay type: cell-based, human; conditions: MTT, 72 h, 1-100 µM, mean ± SD
Description: as §1, §2, §3, §4

[3] = system: HeLa (cervical cancer) cell line; test: MTT cell viability assay, HeLa; assay type: cell-based, human; conditions: for IC50: 72 h, MTT, 1-100 µM, mean ± SD
Description: as §1, §2, §3, §4

[4] = system: HaCaT (non-cancerous keratinocyte cell line); test: MTT cell viability assay, HaCaT; assay type: cell-based; conditions: Homo sapiens, 72 h, 1-100 µM, mean ± SD, non-cancerous cells
Description: as §1, §2, §3, §4

Row | SMILES | IC50 ([1]; Homo sapiens, HCT-116, 72 h) [µM] | IC50 ([2]; Homo sapiens, MCF7, 72 h) [µM] | IC50 ([3]; Homo sapiens, HeLa) [µM] | IC50 [2] [µM] | IC50 [3] [µM] | IC50 [4] [µM] | IC50 [1] [µM] | selectivity ratio HaCaT/HCT-116 ([1]; ratio of IC50 values) | selectivity ratio HaCaT/HeLa ([3]; ratio of IC50 values)
1 | Cc1cc(S(=O)(=O)N=c2[nH]c3ccccc3[nH]2)c(SCc2nc(N)nc(N3CCN(c4cccc(Cl)c4)CC3)n2)cc1Cl [Compound 24, 2-[{4-Amino-6-[4-(3-chlorophenyl)piperazin-1-yl]-1,3,5-triazin-2-yl}methylthio]-N-(1H-benzo[d]imidazol-2(3H)-ylidene)-4-chloro-5-methylbenzenesulfonamide] | 17 ± 1 | 20 ± 0.6 | 27 ± 0.5 | – | – | 42 ± 2 | – | – | –
2 | Cc1cc(S(=O)(=O)N=c2[nH]c3ccccc3[nH]2)c(SCc2nc(N)nc(N3CCN(c4ccccc4F)CC3)n2)cc1Cl [Compound 21, 2-[{4-Amino-6-[4-(2-fluorophenyl)piperazin-1-yl]-1,3,5-triazin-2-yl}metylthio]-N-(1H-benzo[d]imidazol-2(3H)-ylidene)-4-chloro-5-methylbenzenesulfonamide] | 15 ± 1 | 24 ± 1 | 17 ± 0.5 | – | – | 32 ± 1 | – | – | –
3 | Cc1cc(S(=O)(=O)N=c2[nH]c3ccccc3[nH]2)c(SCc2nc(N)nc(Nc3ccccc3)n2)cc1Cl [Compound 11, 2-{[4-Amino-6-(phenylamino)-1,3,5-triazin-2-yl]methylthio}-N-(1H-benzo[d]imidazol-2(3H)-ylidene)-4-chloro-5-methylbenzenesulfonamide] | 37 ± 2 | 41 ± 1 | 39 ± 1 | – | – | 58 ± 2 | – | – | –
4 | N.N.[Cl][Pt][Cl] [cisplatin, reference compound] | – | – | – | 3 ± 0.1 | 3.8 ± 0.2 | – | 2.2 ± 0.1 | – | –
5 | COc1ccc(N2CCN(c3nc(N)nc(CSc4cc(Cl)c(C)cc4S(=O)(=O)N=c4[nH]c5ccccc5[nH]4)n3)CC2)cc1 [Compound 27, 2-[{4-Amino-6-[4-(4-methoxyphenyl)piperazin-1-yl]-1,3,5-triazin-2-yl}metylthio]-N-(1H-benzo[d]imidazol-2(3H)-ylidene)-4-chloro-5-methylbenzenesulfonamide] | 35 ± 1 | > 100 | > 100 | 110 ± 3 | 74 ± 1 | 98 ± 2 | – | – | –
6 | Cc1cc(S(=O)(=O)N=c2[nH]c3ccc(F)cc3[nH]2)c(SCc2nc(N)nc(N3CCN(c4ccccc4)CC3)n2)cc1Cl [Compound 37, 2-[{[4-Amino-6-(4-phenylpiperazin-1-yl)-1,3,5-triazin-2-yl]methyl}thio]-4-chloro-N-(5-fluoro-1H-benzo[d]imidazol-2(3H)-ylidene)-5-methylbenzenesulfonamide] | 17 ± 1 | 27 ± 2 | 20 ± 1 | – | – | 39 ± 1 | – | – | –

Second part, led by results:

Row | IC50 ([1]; Homo sapiens, HCT-116, 72 h) [µM] | IC50 ([2]; Homo sapiens, MCF7, 72 h) [µM] | IC50 ([3]; Homo sapiens, HeLa) [µM] | IC50 [2] [µM] | IC50 [3] [µM] | SMILES | IC50 [4] [µM] | IC50 [1] [µM] | selectivity ratio HaCaT/HCT-116 ([1]; ratio of IC50 values) | selectivity ratio HaCaT/HeLa ([3]; ratio of IC50 values)
7 | 37 ± 1 | 40 ± 1 | 39 ± 1 | – | – | Cc1cc(S(=O)(=O)N=c2[nH]c3ccc(F)cc3[nH]2)c(SCc2nc(N)nc(Nc3cccc(Cl)c3)n2)cc1Cl [Compound 35, 2-[{4-Amino-6-[(3-chlorophenyl)amino]-1,3,5-triazin-2-yl}methylthio]-4-chloro-N-(5-fluoro-1H-benzo[d]imidazol-2(3H)-ylidene)-5-methylbenzenesulfonamide] | 52 ± 2 | – | – | –
8 | 75 ± 3 | > 100 | > 100 | 99 ± 3 | 86 ± 3 | Cc1cc(S(=O)(=O)N=c2[nH]c3ccccc3[nH]2)c(SCc2nc(N)nc(N3CCOCC3)n2)cc1Cl [Compound 7, 2-[(4-Amino-6-morpholino-1,3,5-triazin-2-yl)methylthio]-N-(1H-benzo[d]imidazol-2(3H)-ylidene)-4-chloro-5-methylbenzenesulfonamide] | 102 ± 4 | – | – | –
9 | 7 to 11 | 15 to 24 | 11 to 18 | 24 ± 1 | 11 ± 0.5 | Cc1cc(S(=O)(=O)N=c2[nH]c3ccccc3[nH]2)c(SCc2nc(N)nc(N3CCN(c4ccc(C(F)(F)F)cc4)CC3)n2)cc1Cl [Compound 22, 2-{[4-Amino-6-{4-[4-(trifluoromethyl)phenyl]piperazin-1-yl}-1,3,5-triazin-2-yl]methylthio}-N-(1H-benzo[d]imidazol-2(3H)-ylidene)-4-chloro-5-methylbenzenesulfonamide] | 34 ± 1 | 11 ± 0.5 | 3.1 | 3.1
